# Patent JP2015020973A, “クロマン化合物塩酸塩の結晶形態及びその製造法” (Nissan Chemical Corp, priority 2013, dated 2015)
# Legend:
# [1] = Test Example 1: dissolution test, JP Pharmacopoeia dissolution test 1st fluid (pH 1.2), paddle method; assay type: physicochemical; conditions: dissolution test 1st fluid pH 1.2, 37 °C, paddle 100 rpm, at 60 min
# [2] = Test Example 2: dissolution test, JP Pharmacopoeia dissolution test 2nd fluid (pH 6.8), paddle method; assay type: physicochemical; conditions: dissolution test 2nd fluid pH 6.8, 37 °C, paddle 100 rpm, after 120 min
Compound,dissolution rate [1] [%],dissolution rate [2] [%]
"COc1cc2c(cc1NS(C)(=O)=O)OC(C)(C)[C@H](O)[C@H]2NCCc1ccccc1.Cl (relative stereo) [A形結晶, N−{(3R*,4S*)−3−ヒドロキシ−6−メトキシ−2,2−ジメチル−4−(フェネチルアミノ)クロマン−7−イル}メタンスルホンアミド塩酸塩]",90,~80
"COc1cc2c(cc1NS(C)(=O)=O)OC(C)(C)[C@H](O)[C@H]2NCCc1ccccc1 (relative stereo) [フリー体, N−{(3R*,4S*)−3−ヒドロキシ−6−メトキシ−2,2−ジメチル−4−(フェネチルアミノ)クロマン−7−イル}メタンスルホンアミド]",90,~65
